Measured values from US10227331B2 (priority 2015, dated 2019).
pIC50: −log10 of the molar value. Read-outs that look alike come from different tables or passages of the source.

What was measured:
IMP-1 = IMP-1 (Serratia marcescens, UniProt P52699); assay: biochemical; type: biochemical
In short: (§1)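 Class B activity is measured in the presence of compound by fluorescence with CCF2-FA after a 2-hour incubation at 25° C. IC50 is taken from a 4-parameter fit of semi-logarithmic dose-response data.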

NDM-1 = NDM-1 (Klebsiella pneumoniae, UniProt C7C422); assay: biochemical; type: biochemical; conditions: CCF2-FA substrate, 2 hours at 25° C; read-out: NDM-1 IC50
NDM-1, sequence (C7C422 whole entry, looked up, species assumed): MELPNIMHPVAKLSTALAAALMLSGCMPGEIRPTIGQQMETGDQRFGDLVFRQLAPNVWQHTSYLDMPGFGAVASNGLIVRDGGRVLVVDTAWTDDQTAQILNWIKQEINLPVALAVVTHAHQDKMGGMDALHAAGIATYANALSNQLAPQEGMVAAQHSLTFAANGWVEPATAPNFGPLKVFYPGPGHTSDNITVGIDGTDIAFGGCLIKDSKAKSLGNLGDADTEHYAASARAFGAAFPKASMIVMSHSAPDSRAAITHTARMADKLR
In short: as §1

VIM-1 = VIM-1 (Pseudomonas aeruginosa (strain ATCC 15692 / DSM 22644 / CIP 104116 / JCM 14847 / LMG 12228 / 1C / PRS 101 / PAO1), UniProt A0A0F7KYQ8); assay: biochemical; conditions: CCF2-FA substrate, 2 hours at 25° C
In short: as §1

[1] = tested on: Escherichia coli expressing NDM-1 (CLB30005, CLB30016); type: cell-based; conditions: with imipenem 1 μg/ml, 95% inhibition of bacterial growth; for Escherichia coli MITC95: NDM-1 (CLB30016)
In short: (§2)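 Clinical strains grown overnight on blood agar, then diluted 1:100 in 1.1× CAMHB and exposed to test compound with imipenem at 1 μg/ml. Incubation was 22–24 h at 35° C; growth was read by absorbance to find the compound concentration restoring imipenem susceptibility.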

[2] = tested on: Klebsiella pneumoniae expressing VIM-1 (IHMA599644); type: cell-based; conditions: with imipenem 1 μg/ml, 95% inhibition of bacterial growth; for Klebsiella pneumoniae MITC95: VIM-1 (IHMA599644)
In short: as §2

[3] = tested on: Serratia marcescens expressing IMP-1 (CL5741); type: cell-based; conditions: with imipenem 1 μg/ml, 95% inhibition of bacterial growth; for Serratia marcescens MITC95: IMP-1 (CL5741)
In short: as §2

[4] = tested on: P. aeruginosa expressing IMP-1, efflux+ (MB9798); type: cell-based, Pseudomonas aeruginosa; conditions: for P. aeruginosa expressing IMP-1, efflux+ (MB9798) MITC95: imipenem at 2 μg/mL, in the presence of a class A, C, D serine β-lactamase inhibitor closely related to relebactam; for Efflux ratio: ratio MITC95 PA_9798/MITC95 PA_9799
Excerpt: (§3) The strain background is Pseudomonas aeruginosa PAO1.

[5] = tested on: P. aeruginosa expressing IMP-1, efflux− (MB9799); assay: Efflux: concentration of MBL inhibitor which restores susceptibility to imipenem; type: cell-based, Pseudomonas aeruginosa; conditions: imipenem at 2 μg/mL, in the presence of a class A, C, D serine β-lactamase inhibitor closely related to relebactam
Excerpt: as §3

[6] = CCF2-FA substrate, 2 hours at 25° C, read-out: IMP-1 IC50

IMP-1, sequence (P52699 whole entry, looked up, species assumed): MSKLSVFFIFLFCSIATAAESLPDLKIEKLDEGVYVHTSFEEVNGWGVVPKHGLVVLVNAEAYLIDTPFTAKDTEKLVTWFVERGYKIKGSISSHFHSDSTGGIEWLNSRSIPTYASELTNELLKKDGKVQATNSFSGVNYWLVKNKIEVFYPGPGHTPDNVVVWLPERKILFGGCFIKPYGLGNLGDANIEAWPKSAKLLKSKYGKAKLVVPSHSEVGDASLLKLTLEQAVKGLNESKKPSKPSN

SMILES | pIC50 (IMP-1; [6]) | pIC50 (NDM-1) | pIC50 (VIM-1) | Escherichia coli expressing NDM-1 (CLB30016) MITC95 [1] [µM] | Klebsiella pneumoniae expressing VIM-1 (IHMA599644) MITC95 [2] [µM] | Serratia marcescens expressing IMP-1 (CL5741) MITC95 [3] [µM] | P. aeruginosa expressing IMP-1, efflux+ (MB9798) MITC95 [4] [µM] | Efflux ratio [4] | P. aeruginosa expressing IMP-1, efflux− (MB9799) MITC95 [5] [µM] | Escherichia coli MITC95 [1] [µM] | Klebsiella pneumoniae MITC95 [2] [µM] | Serratia marcescens MITC95 [3] [µM] | pIC50 (IMP-1)
Nc1nc2c(-c3ccc(S(=O)(=O)CC(N)CO)c(S(N)(=O)=O)c3-c3nn[nH]n3)cccc2s1 (stereo not drawn) [Example 96, 6-(2-amino-3-hydroxypropylsulfonyl)-3-(2-aminobenzo[d]thiazol-4-yl)-2-(2H-tetrazol-5-yl)benzenesulfonamide] | 9.58 | 9.91 | 9.73 | 1.563 | 3.125 | 1.563 | 0.7813 | 0.50 | 1.563 | – | – | – | –
Cc1n[nH]c2cc(F)c(-c3ccc(S(=O)(=O)CCN)c(S(N)(=O)=O)c3-c3nnn[nH]3)cc12.O=C(O)C(F)(F)F [Example 162, 2-((4-(6-fluoro-3-methyl-1H-indazol-5-yl)-2-sulfamoyl-3-(1H-tetrazol-5-yl)phenyl)sulfonyl)ethanaminium 2,2,2-trifluoroacetate] | 8.55 | 8.56 | 9.49 | 3.125 | 6.25 | 3.125 | 100 | 63.98 | 1.563 | – | – | – | –
N[C@@H](CO)CS(=O)(=O)c1ccc(-c2cccc3[nH]cnc23)c(-c2nn[nH]n2)c1S(N)(=O)=O [Example 357, (S)-6-((2-amino-3-hydroxypropyl)sulfonyl)-3-(1H-benzo[d]imidazol-4-yl)-2-(2H-tetrazol-5-yl) benzenesulfonamide] | 9.53 | 9.79 | 9.60 | – | – | – | 0.7813 | 0.50 | 1.563 | 1.563 | 3.125 | 1.563 | –
N=C(N)Nc1ccccc1-c1ccc(S(=O)(=O)C2CNC2)c(S(N)(=O)=O)c1-c1nn[nH]n1 [Example 221, 4-(azetidin-3-ylsulfonyl)-2′-guanidino-2-(2H-tetrazol-5-yl)-[1,1′-biphenyl]-3-sulfonamide] | 7.36 | 8.29 | 8.16 | 6.25 | 12.5 | 12.5 | 50 | 16.00 | 3.125 | – | – | – | –
NCCS(=O)(=O)c1ccc(-c2ccc3[nH]c(=O)oc3c2)c(-c2nnn[nH]2)c1S(N)(=O)=O.O=C(O)C(F)(F)F [Example 155, 2-((4-(2-oxo-2,3-dihydrobenzo[d]oxazol-6-yl)-2-sulfamoyl-3-(1H-tetrazol-5-yl)phenyl)sulfonyl)ethanaminium 2,2,2-trifluoroacetate] | 9.65 | 9.09 | 9.54 | 0.7813 | 1.563 | 1.563 | 3.125 | 4.00 | 0.7813 | – | – | – | –
Cn1cc(C(=O)C(F)(F)F)c2c(-c3ccc(S(=O)(=O)C4CNC4)c(S(N)(=O)=O)c3-c3nnn[nH]3)cccc21 [Example 229, 6-(azetidin-3-ylsulfonyl)-3-(1-methyl-3-(2,2,2-trifluoroacetyl)-1H-indol-4-yl)-2-(1H-tetrazol-5-yl)benzenesulfonamide] | – | 9.86 | 9.32 | 6.25 | 12.5 | 6.25 | 25 | 4.00 | 6.25 | – | – | – | 8.76
Nc1ccc2cccc(-c3ccc(S(=O)(=O)C4CNC4)c(S(N)(=O)=O)c3-c3nn[nH]n3)c2n1 [Example 36, 3-(2-aminoquinolin-8-yl)-6-(azetidin-3-ylsulfonyl)-2-(2H-tetrazol-5-yl)benzenesulfonamide] | 9.45 | 9.98 | 9.55 | 3.125 | 1.563 | 0.7813 | 0.7813 | 1.00 | 0.7813 | – | – | – | –
NS(=O)(=O)c1c(S(=O)(=O)C2CNC2)ccc(-c2cccc3sc(O)nc23)c1-c1nn[nH]n1 [Example 309, 6-(azetidin-3-ylsulfonyl)-3-(2-hydroxybenzo[d]thiazol-4-yl)-2-(2H-tetrazol-5-yl)benzenesulfonamide] | 9.59 | 10.05 | 9.84 | – | – | – | 3.125 | 2.00 | 1.563 | 0.7813 | 3.125 | 3.125 | –
CCCS(=O)(=O)c1ccc(C2=CCC(N)CC2)c(-c2nnn[nH]2)c1S(N)(=O)=O (stereo not drawn) [Example 211, 4′-amino-4-(propylsulfonyl)-2-(1H-tetrazol-5-yl)-2′,3′,4′,5′-tetrahydro-[1,1′-biphenyl]-3-sulfonamide] | 8.20 | 7.61 | 9.11 | 12.5 | 25 | 6.25 | 50 | 31.99 | 1.563 | – | – | – | –
Nc1nc2cccc(-c3ccc(S(=O)(=O)[C@H]4CC[C@H](N)CC4)c(S(N)(=O)=O)c3-c3nn[nH]n3)c2[nH]1 [Example 178, 3-(2-amino-3H-benzo[d]imidazol-4-yl)-6-((1r,4r)-4-aminocyclohexylsulfonyl)-2-(2H-tetrazol-5-yl)benzenesulfonamide] | 9.00 | 9.56 | 9.18 | 0.3906 | 1.563 | 0.7813 | 0.7813 | 1.00 | 0.7813 | – | – | – | –
NC(=O)c1cn2cccc(-c3ccc(S(=O)(=O)C4CNC4)c(S(N)(=O)=O)c3-c3nnn[nH]3)c2n1 [Example 59, 8-(4-(azetidin-3-ylsulfonyl)-3-sulfamoyl-2-(1H-tetrazol-5-yl)phenyl)imidazo[1,2-a]pyridine-2-carboxamide] | 8.84 | 9.88 | 9.73 | 3.125 | 3.125 | 3.125 | 3.125 | 2.00 | 1.563 | – | – | – | –
